≈ marks a conversion by molar mass, not a printed value. Like-named read-outs stand apart in the source and are kept apart here.
Key:
M. tb H37Rv [1] = test: microbe, parasite or virus in culture; type: cell-based, Mycobacterium tuberculosis; conditions: Mycobacterium tuberculosis, H37RV; for MIC: read-out: M. tb H37Rv: MIC-MABA
VERO cell cytotoxicity = type: cell-based; conditions: African green monkey, VERO cells
Text: The procedures described in Falzari 2005 were used to generate the data shown in column 2 of Table 4.

M. tb H37Rv [2] = test: microbe, parasite or virus in culture; type: cell-based; conditions: Mycobacterium tuberculosis; for MIC: read-out: M. tb H37Rv: MIC-LORA
Mycobacterium abscessus = test: M. ab_ATCC MIC MHII; type: cell-based
Text: The procedure described in Franz 2017 was used to generate the data shown in column 5 of Table 4.

[3] = Mycobacteroides abscessus; read-out: M. ab_ATCC: MIC MHII: MIC

C[Si]1(C)CCC(NC(=O)c2cc3c(Cl)cc(Cl)cc3[nH]2)C1 (racemic) [MPL-399, 4,6-dichloro-N-(1,1-dimethylsilolan-3-yl)-1H-indole-2-carboxamide]
MIC (M. tb H37Rv [1]): < 0.004 µg/mL
IC50 (VERO cell cytotoxicity): > 20 µg/mL
MIC (M. tb H37Rv [2]): 7.81 µg/mL (≈ 22.9 µM)
MIC (Mycobacterium abscessus; [3]): 0.062 µg/mL (≈ 0.182 µM)

CC(C)Oc1cc(F)cc2[nH]c(C(=O)NC3CC[Si](C)(C)CC3)cc12 [MPL-383, N-(1,1-dimethylsilinan-4-yl)-6-fluoro-4-isopropoxy-1H-indole-2-carboxamide]
MIC (M. tb H37Rv [1]): 0.0148 µg/mL (≈ 0.0408 µM)
IC50 (VERO cell cytotoxicity): > 20 µg/mL
MIC (M. tb H37Rv [2]): > 20 µg/mL
MIC (Mycobacterium abscessus; [3]): > 64 µg/mL

Cc1cc(C)c2cc(C(=O)NC3CC[Si](C)(C)CC3)[nH]c2c1 [MPL-317, N-(1,1-dimethylsilinan-4-yl)-4,6-dimethyl-1H-indole-2-carboxamide]
MIC (M. tb H37Rv [1]): 0.031 µg/mL (≈ 0.0986 µM)
IC50 (VERO cell cytotoxicity): > 20 µg/mL
MIC (M. tb H37Rv [2]): > 20 µg/mL
MIC (Mycobacterium abscessus; [3]): 0.062 µg/mL (≈ 0.197 µM)

O=C(NC1CC[Si]2(CCCC2)CC1)c1cc2c(Cl)cc(Cl)cc2[nH]1 [MPL-252, 4,6-dichloro-N-(5-silaspiro[4.5]decan-8-yl)-1H-indole-2-carboxamide]
MIC (M. tb H37Rv [1]): 0.014 µg/mL (≈ 0.0367 µM)
IC50 (VERO cell cytotoxicity): > 20 µg/mL
MIC (Mycobacterium abscessus; [3]): 64 µg/mL (≈ 168 µM)

C[Si]1(C)CCC(NC(=O)c2cc3c(C(F)(F)F)cc(C(F)(F)F)cc3[nH]2)C1 (centres unmarked) [MPL-327, N-(1,1-dimethylsilolan-3-yl)-4,6-bis(trifluoromethyl)-1H-indole-2-carboxamide]
MIC (M. tb H37Rv [1]): 0.00752 µg/mL (≈ 0.0184 µM)
IC50 (VERO cell cytotoxicity): > 20 µg/mL
MIC (M. tb H37Rv [2]): > 20 µg/mL
MIC (Mycobacterium abscessus; [3]): > 64 µg/mL

C[Si]1(C)CCCC(NC(=O)c2cc3c(C(F)(F)F)cc(C(F)(F)F)cc3[nH]2)CCC1 [MPL-326, N-(1,1-dimethylsilocan-5-yl)-4,6-bis(trifluoromethyl)-1H-indole-2-carboxamide]
MIC (M. tb H37Rv [1]): 0.0305 µg/mL (≈ 0.0677 µM)
IC50 (VERO cell cytotoxicity): 15.4 µg/mL (≈ 34.2 µM)
MIC (M. tb H37Rv [2]): > 20 µg/mL
MIC (Mycobacterium abscessus; [3]): > 64 µg/mL

Cc1c(C(=O)NC2CC[Si](C)(C)CC2)[nH]c2cc(F)cc(F)c12 [MPL-335, N-(1,1-dimethylsilinan-4-yl)-4,6-difluoro-3-methyl-1H-indole-2-carboxamide]
MIC (M. tb H37Rv [1]): < 0.004 µg/mL
IC50 (VERO cell cytotoxicity): > 20 µg/mL
MIC (M. tb H37Rv [2]): > 20 µg/mL
MIC (Mycobacterium abscessus; [3]): > 64 µg/mL

C[Si]1(C)CCC(NC(=O)c2cc3c(Br)cc(C(F)(F)F)cc3[nH]2)CC1 [MPL-339, 4-bromo-N-(1,1-dimethylsilinan-4-yl)-6-(trifluoromethyl)-1H-indole-2-carboxamide]
MIC (M. tb H37Rv [1]): < 0.004 µg/mL
IC50 (VERO cell cytotoxicity): > 20 µg/mL
MIC (M. tb H37Rv [2]): > 20 µg/mL
MIC (Mycobacterium abscessus; [3]): > 64 µg/mL

Cc1cc(F)c2cc(C(=O)NC3CC[Si](C)(C)CC3)[nH]c2c1 [MPL-470, N-(1,1-dimethylsilinan-4-yl)-4-fluoro-6-methyl-1H-indole-2-carboxamide]
MIC (M. tb H37Rv [1]): 0.007 µg/mL (≈ 0.022 µM)
IC50 (VERO cell cytotoxicity): > 20 µg/mL
MIC (M. tb H37Rv [2]): > 20 µg/mL
MIC (Mycobacterium abscessus; [3]): > 64 µg/mL

Cc1c(C(=O)NC2CC[Si](C)(C)CC2)[nH]c2cc(Cl)cc(Cl)c12 [MPL-334, 4,6-dichloro-N-(1,1-dimethylsilinan-4-yl)-3-methyl-1H-indole-2-carboxamide]
MIC (M. tb H37Rv [1]): < 0.004 µg/mL
IC50 (VERO cell cytotoxicity): > 20 µg/mL
MIC (M. tb H37Rv [2]): > 20 µg/mL
MIC (Mycobacterium abscessus; [3]): > 64 µg/mL

O=C(NC1CC[Si]2(CCCCC2)CC1)c1cc2c(Cl)cc(Cl)cc2[nH]1 [MPL-257, 4,6-dichloro-N-(6-silaspiro[5.5]undecan-3-yl)-1H-indole-2-carboxamide]
MIC (M. tb H37Rv [1]): 0.0045 µg/mL (≈ 0.0114 µM)
inhibition at 20 µg/mL (M. tb H37Rv [2]; at 20 μg/mL, read-out: M. tb H37Rv: MIC-LORA: Comment (% inhibition)): 68%
MIC (M. tb H37Rv [2]): > 20 µg/mL
MIC (Mycobacterium abscessus; [3]): > 64 µg/mL

O=C(NC1CC[Si]2(CCCC2)CC1)c1cc2c(F)cc(F)cc2[nH]1 [MPL-251, 4,6-difluoro-N-(5-silaspiro[4.5]decan-8-yl)-1H-indole-2-carboxamide]
MIC (M. tb H37Rv [1]): 0.0043 µg/mL (≈ 0.0123 µM)
IC50 (VERO cell cytotoxicity): > 20 µg/mL
MIC (M. tb H37Rv [2]): 7 µg/mL (≈ 20.1 µM)
MIC (Mycobacterium abscessus; [3]): > 64 µg/mL

O=C(NC1CC[Si]2(CCCCC2)CC1)c1cc2c(F)cc(F)cc2[nH]1 [MPL-256, 4,6-difluoro-N-(6-silaspiro[5.5]undecan-3-yl)-1H-indole-2-carboxamide]
MIC (M. tb H37Rv [1]): 0.0041 µg/mL (≈ 0.0113 µM)
IC50 (VERO cell cytotoxicity): > 20 µg/mL
MIC (M. tb H37Rv [2]): 3.4 µg/mL (≈ 9.38 µM)
MIC (Mycobacterium abscessus; [3]): > 64 µg/mL

Cc1cc(Br)cc2[nH]c(C(=O)NC3CC[Si](C)(C)CC3)cc12 [MPL-338, 6-bromo-N-(1,1-dimethylsilinan-4-yl)-4-methyl-1H-indole-2-carboxamide]
MIC (M. tb H37Rv [1]): < 0.004 µg/mL
IC50 (VERO cell cytotoxicity): > 20 µg/mL
MIC (M. tb H37Rv [2]): > 20 µg/mL
MIC (Mycobacterium abscessus; [3]): > 64 µg/mL

Cc1cc(C#N)c2cc(C(=O)NC3CC[Si](C)(C)CC3)[nH]c2c1 [MPL-344, 4-cyano-N-(1,1-dimethylsilinan-4-yl)-6-methyl-1H-indole-2-carboxamide]
MIC (M. tb H37Rv [1]): 0.008 µg/mL (≈ 0.0246 µM)
IC50 (VERO cell cytotoxicity): > 20 µg/mL
MIC (M. tb H37Rv [2]): > 20 µg/mL
MIC (Mycobacterium abscessus; [3]): > 64 µg/mL

C[Si]1(C)CCCC(NC(=O)c2cc3c(C(F)(F)F)cc(C(F)(F)F)cc3[nH]2)CC1 (centres unmarked) [MPL-324, N-(1,1-dimethylsilepan-4-yl)-4,6-bis(trifluoromethyl)-1H-indole-2-carboxamide]
MIC (M. tb H37Rv [1]): 0.0154 µg/mL (≈ 0.0353 µM)
IC50 (VERO cell cytotoxicity): > 20 µg/mL
MIC (M. tb H37Rv [2]): > 20 µg/mL
MIC (Mycobacterium abscessus; [3]): > 64 µg/mL

C[Si]1(C)CCCC(NC(=O)c2cc3c(F)cc(F)cc3[nH]2)CC1 (centres unmarked) [MPL-286, N-(1,1-dimethylsilepan-4-yl)-4,6-difluoro-1H-indole-2-carboxamide]
MIC (M. tb H37Rv [1]): 0.0044 µg/mL (≈ 0.0131 µM)
IC50 (VERO cell cytotoxicity): > 20 µg/mL
MIC (M. tb H37Rv [2]): 7.9 µg/mL (≈ 23.5 µM)
MIC (Mycobacterium abscessus; [3]): > 64 µg/mL

C[Si]1(C)CCC(NC(=O)c2cc3c(F)cc(F)cc3[nH]2)C1 (centres unmarked) [MPL-400, N-(1,1-dimethylsilolan-3-yl)-4,6-difluoro-1H-indole-2-carboxamide]
MIC (M. tb H37Rv [1]): 0.0113 µg/mL (≈ 0.0366 µM)
IC50 (VERO cell cytotoxicity): > 20 µg/mL
MIC (M. tb H37Rv [2]): > 20 µg/mL
MIC (Mycobacterium abscessus; [3]): > 64 µg/mL

Cc1cc(C)c2cc(C(=O)NC3CC[Si](C)(C)C3)[nH]c2c1 (racemic) [MPL-296, N-(1,1-dimethylsilolan-3-yl)-4,6-dimethyl-1H-indole-2-carboxamide]
MIC (M. tb H37Rv [1]): 0.0151 µg/mL (≈ 0.0503 µM)
IC50 (VERO cell cytotoxicity): 13.8 µg/mL (≈ 45.9 µM)
MIC (M. tb H37Rv [2]): 2.3 µg/mL (≈ 7.65 µM)
MIC (Mycobacterium abscessus; [3]): 0.062 µg/mL (≈ 0.206 µM)

C[Si]1(C)CCCCC(NC(=O)c2cc3c(C(F)(F)F)cc(C(F)(F)F)cc3[nH]2)CC1 (centres unmarked) [MPL-325, N-(1,1-dimethylsilocan-4-yl)-4,6-bis(trifluoromethyl)-1H-indole-2-carboxamide]
MIC (M. tb H37Rv [1]): 0.0305 µg/mL (≈ 0.0677 µM)
IC50 (VERO cell cytotoxicity): 16.4 µg/mL (≈ 36.4 µM)
MIC (M. tb H37Rv [2]): > 20 µg/mL
MIC (Mycobacterium abscessus; [3]): > 64 µg/mL

C[Si]1(C)CC[C@@H](NC(=O)c2cc3c(Cl)cc(Cl)cc3[nH]2)C1 (single isomer, unassigned) [MPL-399A]
MIC (M. tb H37Rv [1]): 0.03 µg/mL (≈ 0.0879 µM)
IC50 (VERO cell cytotoxicity): > 64 µg/mL
MIC (Mycobacterium abscessus; [3]): 0.125 µg/mL (≈ 0.366 µM)

COc1cc(F)cc2[nH]c(C(=O)NC3CC[Si](C)(C)CC3)cc12 [MPL-196, N-(1,1-dimethylsilinan-4-yl)-6-fluoro-4-methoxy-1H-indole-2-carboxamide]
MIC (M. tb H37Rv [1]): 0.0048 µg/mL (≈ 0.0144 µM)
IC50 (VERO cell cytotoxicity): > 32 µg/mL
MIC (M. tb H37Rv [2]): > 32 µg/mL
MIC (Mycobacterium abscessus; [3]): > 64 µg/mL

Cc1cc(C#N)cc2[nH]c(C(=O)NC3CC[Si](C)(C)CC3)cc12 [MPL-340, 6-cyano-N-(1,1-dimethylsilinan-4-yl)-4-methyl-1H-indole-2-carboxamide]
MIC (M. tb H37Rv [1]): < 0.004 µg/mL
IC50 (VERO cell cytotoxicity): > 20 µg/mL
MIC (M. tb H37Rv [2]): > 20 µg/mL
MIC (Mycobacterium abscessus; [3]): > 64 µg/mL

C[Si]1(C)CCC(NC(=O)c2cc3c(C(F)(F)F)cc(C(F)(F)F)cc3[nH]2)CC1 [MPL-336, N-(1,1-dimethylsilinan-4-yl)-4,6-bis(trifluoromethyl)-1H-indole-2-carboxamide]
MIC (M. tb H37Rv [1]): 0.0306 µg/mL (≈ 0.0724 µM)
IC50 (VERO cell cytotoxicity): > 20 µg/mL
MIC (M. tb H37Rv [2]): > 20 µg/mL
MIC (Mycobacterium abscessus; Mycobacteroides abscessus, read-out: M. ab_ATCC: MIC MHII: MIC): > 64 µg/mL

C[Si]1(C)CC[C@H](NC(=O)c2cc3c(Cl)cc(Cl)cc3[nH]2)C1 (single isomer, unassigned) [MPL-399B]
MIC (M. tb H37Rv [1]): 0.003 µg/mL (≈ 0.00879 µM)
IC50 (VERO cell cytotoxicity): 52 µg/mL (≈ 152 µM)
MIC (Mycobacterium abscessus; [3]): 0.125 µg/mL (≈ 0.366 µM)

Cc1cc(C)c2cc(C(=O)NC3CCC[Si](C)(C)CC3)[nH]c2c1 (centres unmarked) [MPL-262, N-(1,1-dimethylsilepan-4-yl)-4,6-dimethyl-1H-indole-2-carboxamide]
MIC (M. tb H37Rv [1]): 0.009 µg/mL (≈ 0.0274 µM)
MIC (M. tb H37Rv [2]): 16 µg/mL (≈ 48.7 µM)
MIC (Mycobacterium abscessus; [3]): 0.5 µg/mL (≈ 1.52 µM)

Cc1cc(C(F)(F)F)c2cc(C(=O)NC3CC[Si](C)(C)CC3)[nH]c2c1 [MPL-385, N-(1,1-dimethylsilinan-4-yl)-6-methyl-4-(trifluoromethyl)-1H-indole-2-carboxamide]
MIC (M. tb H37Rv [1]): < 0.004 µg/mL
IC50 (VERO cell cytotoxicity): > 20 µg/mL
MIC (M. tb H37Rv [2]): 12.7 µg/mL (≈ 34.5 µM)
MIC (Mycobacterium abscessus; [3]): 64 µg/mL (≈ 174 µM)

CC(CC[Si](C)(C)C)NC(=O)c1cc2c(Cl)cc(Cl)cc2[nH]1 (centres unmarked) [MPL-360, 4,6-dichloro-N-(1-methyl-3-trimethylsilyl-propyl)-1H-indole-2-carboxamide]
inhibition at 1 µg/mL (M. tb H37Rv [1]; at 1 ug/mL, read-out: M. tb H37Rv: MABA % inhibition): 87%
IC50 (VERO cell cytotoxicity): 15.4 µg/mL (≈ 43.1 µM)
MIC (M. tb H37Rv [2]): > 20 µg/mL

Source: US20230040909A1 (priority 2019, published 2023)
